# Patent US20130101565A1, “USE OF CARBONIC ANHYDRASE II FOR PRODUCING A DRUG” (CONSEJO SUPERIOR DE INVESTIGACIONES CIENTIFICAS (CSIC), priority 2009, published 2013)
# Legend:
# PCNA and Stathmin genes = test: In vivo renal ischemia-reperfusion: real-time RT-PCR of regeneration markers PCNA and Stathmin in kidney; design: species or system Swiss strain mice; conditions: FIG. 1
# Protocol: (§1) Swiss strain mice were used, males with an approximate weight of 25-30 g (Charles River, France). All the procedures were performed under the supervision of the ethics committee of the Institute for Biomedical Research of Barcelona (CSIC) and followed European Union guidelines. The environmental conditions were kept constant, the temperature was 21-22° C., the relative humidity was 70% and the alternative cycles of light/darkness were 12 h. The animals were fed a standard diet of AO4 fodder (Panlab, Barcelona) and water from the Barcelona supply network ad libitum.
# The animals were anaesthesised with Isoflurane, placed in the supine position, and their body temperature was maintained at between 36° C. and 37° C. After performing a median laparotomy to access the kidney, carefully putting aside the intestinal packet, bilateral ischemia was induced by clamping both renal arterio-venous pedicles with a non-traumatic microvascular clamp for 45 minutes. Subsequently, the reperfusion period was started, with removal of the clamp, and it was visually verified by observing the return of the blood flow to the kidney. Subsequently, the animal was sutured and administered subcutaneous Buprex (4.16 μg/100 g of weight).
# Animals subjected to a sham operation were used as controls. During the entire operation process, the animals were well hydrated and the body temperature was maintained at about 37° C. During the reperfusion time, the animals were stabulated under the control of a veterinary. […]
# The RNA of the kidney samples was extracted by means of the TRIzol reagent in accordance with the manufacturer's instructions (Invitrogen, Barcelona). […] The RNA concentrations were calculated by determining the absorbance at 260 nm. The integrity of the RNA thus obtained was examined by analysing the 18s and 28s ribosomal RNA bands detected and analysed in the Bioanalyzer of the Clinical Hospital of Barcelona (Agilent).
# The expression of the analysed genes was measured by means of real-time quantitative RT-PCR normalised with the glyceraldehyde 3-phosphate dehydrogenase (GAPDH) housekeeping gene. […]
# Erythropoietin (EPO) = test: In vivo renal ischemia-reperfusion: Western Blot for EPO in renal tissue; design: species or system Swiss strain mice; conditions: vs I/R, FIG. 3
# Protocol: as §1
# (§2) The animals were anaesthesised with Isoflurane, placed in the supine position, and their body temperature was maintained at between 36° C. and 37° C. […]
# The renal tissue samples were homogenised in lysis buffer (70 mM sucrose, 2 mM Hepes KOH, 220 mM Mannitol, 0.1 mM EGTA, 1 mM PMSF, 0.1 mM BSA, antiproteases cocktail (SIGMA)); subsequently, the protein concentration thereof was determined. The proteins were determined by means of the Bradford colorimetric method with a commercial reagent from BioRad.
# 50 μg of protein for each of the groups to be analysed were placed in each well of the 12% acrylamide gel. […]
# caspase 3 = test: In vivo renal ischemia-reperfusion: apoptosis evaluated by activity of caspase 3 in renal tissue; design: species or system Swiss strain mice; conditions: FIG. 2
# Protocol: as §1, §2
# (§3) The activity of caspase-3 was determined by measuring the proteolysis of the specific substrate (N-acetyl-Asp-Glu-Val-Asp-7-amino-4-methyl coumarin (DEVD-AMC; Biomol, Plymouth Meeting, Pa.). The renal tissue samples were homogenised and sonicated in the assay buffer (50 mM HEPES, 10% sucrose, 0.1% CHAPS, 5 mM GSSG, 5 mM DTT). The supernatants of the samples were incubated in this buffer, whereto DEVD-AMC at a concentration of 50 μM was added. The AMC released was quantified for 1 hour and a half at 37° C. by fluorospectrophotometry, using 380 nm of excitation and measuring the emission at 450 nm.
# [1] = system: Proximal tubular epithelial cells from rats (NRK52e); test: In vitro cisplatin-induced damage of renal tubular cells: apoptosis evaluated by activity of caspase 3; type: cell-based; conditions: cisplatin+CAII group: NRK52e, cisplatin 200 μM 6 h, then 10 μg/ml CAII 16 h; vs cisplatin; FIG. 5
# Protocol: (§4) Proximal tubular epithelial cells from rats (NRK52e) were kept in culture bottles (75 cm^2), with a culture medium (DMEM) whereto 17.5 mM of glucose and 2.5 mM of glutamine were added; this medium was also supplemented with antibiotics (100 units/ml of penicillin and 100 μg/ml of streptomycin) and 10% foetal calf serum (FCS). The cells were incubated in a humidified atmosphere with 5% CO2 at 37° C.
# (§5) The control cells (control) were collected when they reached confluence without any treatment.
# Treatment with cisplatin (Sigma) was performed by dissolving the drug in the minimum volume of DMSO (40 μl) and diluting it in PBS at a concentration of 200 μM. […]
# as §3, with “Pa.). The cell culture samples were” for “Pa.). The renal tissue samples were”, “of the sample were incubated” for “of the samples were incubated”, “C. by means of fluorospectrophotometry, using” for “C. by fluorospectrophotometry, using”
# [2] = system: Proximal tubular epithelial cells from rats (NRK52e); test: In vitro cisplatin-induced damage of renal tubular cells: real-time RT-PCR of PCNA and Ki67; type: cell-based; conditions: cis+CAII group: NRK52e, cisplatin 200 μM 6 h, then 10 μg/ml CAII 16 h; vs cis; FIG. 4
# Protocol: as §4, §5
# Treatment with cisplatin (Sigma) was performed by dissolving the drug in the minimum volume of DMSO (40 μl) and diluting it in PBS at a concentration of 200 μM. After 6 hours, the medium was removed and a new medium was added, without the drug for the CIS group and with 10 μg/ml of CAII for the CIS+CAII group. The samples were collected 16 hours later. […]
# The RNA of the samples taken from the cell culture was extracted using the TRIzol reagent in accordance with the manufacturer's instructions (Invitrogen, Barcelona). […] The RNA concentrations were calculated by determining the absorbance at 260 nm. The integrity of the RNA thus obtained was examined by analysing the 18s and 28s ribosomal RNA bands detected and analysed in the Bioanalyzer of the Clinical Hospital of Barcelona (Agilent).
# The expression of the analysed genes was measured by means of real-time quantitative RT-PCR normalised with GAPDH. […]
# [3] = I/R+AZT group: Azetazolamide 30 mg/kg intraperitoneal one day prior to I/R
Compound,regenerative markers (PCNA and Stathmin mRNA) (PCNA and Stathmin genes; [3]),amount of EPO in kidney (Western Blot) (Erythropoietin (EPO); [3]),"incidence of apoptosis (activity of caspase 3) (caspase 3; I/R+CAII group: CAII 5 mg/kg at beginning of reperfusion, vs I/R)","apoptosis naturally present in healthy tissue (activity of caspase 3) (caspase 3; control+CAII group: no I/R, CAII 5 mg/kg intravenous)","regenerative response (expression of PCNA and Stathmin mRNA) (PCNA and Stathmin genes; I/R+CAII group: 45 min ischemia, 24 h reperfusion, CAII 5 mg/kg into inferior vena cava at beginning of reperfusion, vs I/R)","regeneration (PCNA and Stathmin mRNA) in undamaged tissue (PCNA and Stathmin genes; control+CAII group: no I/R, CAII 5 mg/kg intravenous 24 h prior to sample collection)",apoptosis (activity of caspase 3) [1],amount of EPO in kidney (Western Blot) (Erythropoietin (EPO); I/R+CAII group: CAII 5 mg/kg at beginning of reperfusion),regeneration (expression of PCNA and Ki67 mRNA) [2]
"CC(=O)Nc1nnc(S(N)(=O)=O)s1 [azetazolamide, Azetazolamide, reference compound]",decrease,reduced the amount of EPO,,,,,,,
carbonic anhydrase II [CAII],,,drastically reduced,does not affect,marked increase,did not induce regeneration,capable of reverting apoptosis,marked increase,significantly increased regeneration
